Experiments:
Type in all cases: in vivo
[1] = tested on: barley, spring (spring barley, Hordeum vulgare); test: Test D pre-/postemergence: barley, spring
Source text: (§1) Seeds of plant species selected from bluegrass (annual bluegrass, Poa annua), blackgrass (Alopecurus myosuroides), canarygrass (Phalaris minor), chickweed (common chickweed, Stellaria media), galium (catchweed bedstraw, Galium aparine), bromegrass, downy (downy bromegrass, Bromus tectorum), field poppy (Papaver rhoeas), field violet (Viola arvensis), foxtail, green (green foxtail, Setaria viridis), deadnettle (henbit deadnettle, Lamium amplexicaule), ryegrass, Italian (Italian ryegrass, Lolium multiflorum), kochia (Kochia scoparia), lambsquarters (Chenopodium album), oilseed rape (Brassica napus), pigweed (Amaranthus retroflexus), Russian thistle (Salsola iberica), chamomile (scentless chamomile, Matricaria inodora), speedwell (bird's-eye speedwell, Veronica persica), barley, spring (spring barley, Hordeum vulgare), wheat, spring (spring wheat, Triticum aestivum), buckwheat, wild (wild buckwheat, Polygonum convolvulus), mustard, wild (wild mustard, Sinapis arvensis), oat, wild (wild oat, Avena fatua), radish, wild (wild radish, Raphanus raphanistrum), windgrass (Apera spica-venti), barley, winter (winter barley, Hordeum vulgare), and wheat, winter (winter wheat, Triticum aestivum) were planted into a silt loam soil and treated preemergence with test chemicals formulated in a non-phytotoxic solvent mixture which included a surfactant. At the same time, these same crop and weed species were planted in pots containing the planting medium comprising spaghnum peat moss, vermiculite, wetting agent and starter nutrients and treated with postemergence applications of the test chemicals formulated in the same manner. Plants ranged in height from 2 to 18 cm (1- to 4-leaf stage).
(§2) Treated plants and controls were maintained in a controlled growth environment for 14 to 21 days after which time all species were compared to controls and visually evaluated. Plant response ratings, summarized in Table D, are based on a scale of 0 to 100 where 0 is no effect and 100 is complete control. A dash (-) response means no test result.

[2] = tested on: wheat, winter (winter wheat, Triticum aestivum); test: Test D pre-/postemergence: wheat, winter
Source text: as §1, §2

[3] = tested on: Russian thistle (Salsola kali); test: Test C pre-/postemergence: Russian thistle; details: Preemergence
Source text: Seeds of plant species selected from blackgrass (Alopecurus myosuroides), bromegrass, downy (downy bromegrass, Bromus tectorum), foxtail, green (green foxtail, Setaria viridis), ryegrass, Italian (Italian ryegrass, Lolium multiflorum), winter wheat (Triticum aestivum), wild oat (Avena fatua), galium (catchweed bedstraw, Galium aparine), bermudagrass (Cynodon dactylon), surinam grass (Brachiaria decumbens), cocklebur (common cocklebur, Xanthium strumarium), corn (Zea mays), large crabgrass (Digitaria sanguinalis), woolly cupgrass (Eriochloa villosa), foxtail, giant (giant foxtail, Setaria faberii), goosegrass (Eleusine indica), johnsongrass (Sorghum halepense), kochia (Kochia scoparia), lambsquarters (Chenopodium album), morningglory (Ipomoea coccinea), nightshade (eastern black nightshade, Solanum ptycanthum), nutsedge, yellow (yellow nutsedge, Cyperus esculentus), pigweed (Amaranthus retroflexus), ragweed (common ragweed, Ambrosia elation), soybean (Glycine max), common (oilseed) sunflower (Helianthus annuus), Russian thistle (Salsola kali) and velvetleaf (Abutilon theophrasti) were planted into a blend of loam soil and sand and treated preemergence with test chemicals formulated in a non-phytotoxic solvent mixture which included a surfactant.
At the same time, plants selected from these crop and weed species and also barley (winter barley, Hordeum vulgare), canarygrass (Phalaris minor), chickweed (common chickweed, Stellaria media) windgrass (Apera spica-venti) and deadnettle (henbit deadnettle, Lamium amplexicaule) were planted in pots containing Redi-Earth® planting medium (Scotts Company, 14111 Scottslawn Road, Marysville, Ohio 43041) comprising spaghnum peat moss, vermiculite, wetting agent and starter nutrients and treated with postemergence applications of test chemicals formulated in the same manner. Plants ranged in height from 2 to 18 cm (1- to 4-leaf stage) for postemergence treatments.
as §2, with “greenhouse” for “controlled growth environment”, “13” for “14”, “15 days,” for “21 days”, “C,” for “D,”

[4] = tested on: barley (winter barley, Hordeum vulgare); test: Test C postemergence: barley
Method in brief: (§3)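 Plants at the 1- to 4-leaf stage (2 to 18 cm tall), grown in pots of peat moss/vermiculite planting medium, received postemergence applications of the formulated test chemicals. After 13 to 15 days in a greenhouse, injury was scored visually versus controls from 0 (no effect) to 100 (complete control).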

[5] = tested on: rice (Oryza sativa); test: Test C flooded paddy test: rice; details: Oryza sativa, scale 0 to 100 (0 no effect, 100 complete control), read-out: Plant response rating, Rice; for plant injury at 62 g/ha / plant injury at 125 g/ha / plant injury at 250 g/ha: Flood (flooded paddy test), visual rating after 13 to 15 days; for plant injury at 62 g/ha: 62 g ai/ha; for plant injury at 125 g/ha: 125 g ai/ha; for plant injury at 250 g/ha: 250 g ai/ha; for plant injury at 31 g/ha: Flood, 31 g ai/ha
Method in brief: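 Rating: visual, 0–100 (100 = complete control), versus untreated controls after 13 to 15 greenhouse days. Treatment went into paddy water held at 3 cm over the soil, on plants grown to two leaves.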

[6] = tested on: windgrass (Apera spica-venti); test: Test C postemergence: windgrass
Method in brief: as §3

[7] = tested on: barnyardgrass (Echinochloa crus-galli); test: Test B flooded paddy: barnyardgrass; details: Flood; 250 g ai/ha; applied to paddy water at 2-leaf stage; visually evaluated after 13 to 15 days
Method in brief: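 Greenhouse assay lasting 13 to 15 days. Treatment was into water flooding pots 3 cm deep, at the 2-leaf stage, with that level sustained afterwards. Scores compare treated with control plants visually, 100 denoting complete control and 0 no effect; a dash marks no test result.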

[8] = Postemergence, 31 g ai/ha, scale 0 to 100 (0 no effect, 100 complete control)
[9] = Postemergence, 62 g ai/ha, scale 0 to 100 (0 no effect, 100 complete control)
[10] = Postemergence, 125 g ai/ha, scale 0 to 100, 0 no effect, 100 complete control
[11] = Postemergence, 250 g ai/ha, scale 0 to 100 (0 no effect, 100 complete control)
[12] = Postemergence, 16 g ai/ha, scale 0 to 100
[13] = Preemergence, 16 g ai/ha, scale 0 to 100 (0 no effect, 100 complete control)
[14] = Preemergence, 31 g ai/ha, scale 0 to 100 (0 no effect, 100 complete control)
[15] = Preemergence, 62 g ai/ha, scale 0 to 100
[16] = Preemergence, 125 g ai/ha, scale 0 to 100
[17] = Preemergence, 250 g ai/ha, scale 0 to 100
[18] = 31 g ai/ha, scale of 0 to 100, 0 is no effect, 100 is complete control
[19] = 62 g ai/ha, scale of 0 to 100, 0 is no effect, 100 is complete control
[20] = 125 g ai/ha, scale 0 to 100, 0 no effect, 100 complete control
[21] = 250 g ai/ha, scale 0 to 100, 0 no effect, 100 complete control
[22] = 62 g ai/ha, scale 0 to 100 (0 no effect, 100 complete control)
[23] = 31 g ai/ha, scale 0 to 100 (0 no effect, 100 complete control)
[24] = Postemergence, 8 g ai/ha, scale 0 to 100

SMILES | Plant response rating: Barley, Spring [1, 8] | Plant response rating: Barley, Spring [1, 9] | Plant response rating: Barley, Spring [1, 10] | Plant response rating, Barley, Spring [1, 12] | Plant response rating: Wheat, Winter [2, 8] | Plant response rating: Wheat, Winter [2, 9] | Plant response rating: Wheat, Winter [2, 10] | Plant response rating, Wheat, Winter [2, 12] | Plant response rating, Russian Thistle [3, 18] | Plant response rating, Russian Thistle [3, 19] | Plant response rating, Russian Thistle [3, 20] | Plant response rating, Russian Thistle [3, 21] | Plant response rating, Barley [4, 22] | Plant response rating, Barley [4, 20] | Plant response rating, Barley ([4]; 250 g ai/ha, scale 0 to 100) | Plant response rating, Windgrass [6, 23] | Plant response rating, Windgrass [6, 22] | Plant response rating, Windgrass [6, 20] | Plant response rating, Windgrass ([6]; 250 g ai/ha, scale 0 to 100) | Plant response rating, Barley [4, 23] | also measured
Cc1nn(-c2ccc(F)cc2)nc1Cc1ccnc(C(F)(F)F)c1 [Compound 16, 4-[[2-(4-fluorophenyl)-5-methyl-2H-1,2,3-triazol-4-yl]methyl]-2-(trifluoromethyl)pyridine] | 15 | 15 | 20 | 5 | 10 | 15 | 20 | 5 | 45 | 100 | 100 | 100 | 35 | 45 | 45 | 45 | 50 | 50 | 50 |  | Plant response rating: Barley, Spring [1, 11]: 35; Plant response rating, Barley, Spring [1, 13]: 0; Plant response rating, Barley, Spring [1, 14]: 0; Plant response rating, Barley, Spring [1, 15]: 5; Plant response rating, Barley, Spring [1, 16]: 5; Plant response rating, Barley, Spring [1, 17]: 5; Plant response rating: Wheat, Winter [2, 11]: 25; Plant response rating, Wheat, Winter [2, 13]: 0; Plant response rating, Wheat, Winter [2, 14]: 0; Plant response rating, Wheat, Winter [2, 15]: 0; Plant response rating, Wheat, Winter [2, 16]: 0; Plant response rating, Wheat, Winter [2, 17]: 0; plant injury at 62 g/ha [5]: 30%; plant injury at 125 g/ha [5]: 40%; plant injury at 250 g/ha [5]: 50%; plant injury at 31 g/ha [5]: 20%
Cc1nn(-c2ccc(C(F)(F)F)cc2)nc1Cc1ccnc(C(F)(F)F)c1 [Compound 47, 4-[[5-methyl-2-[4-(trifluoromethyl)phenyl]-2H-1,2,3-triazol-4-yl]methyl]-2-(trifluoromethyl)pyridine] |  |  |  |  |  |  |  |  | 85 | 100 | 100 | 100 | 45 | 50 | 55 | 60 | 80 | 85 | 100 | 35 | plant injury at 62 g/ha [5]: 50%; plant injury at 125 g/ha [5]: 60%; plant injury at 250 g/ha [5]: 60%; plant injury at 31 g/ha [5]: 30%
Fc1ccc(-n2nc(Cc3ccnc(C(F)(F)F)c3)c(OCC(F)(F)F)n2)cc1 [Compound 142] |  |  |  |  |  |  |  |  |  | 80 | 90 | 90 | 35 | 40 | 45 | 80 | 80 | 85 | 95 | 20 | Plant response rating, Barnyardgrass (0 to 100 scale, 0 is no effect, 100 is complete control) [7]: 70
Cc1nn(-c2ccc(F)c(F)c2)nc1Oc1ccnc(C(F)(F)F)c1 [Compound 145] | 10 | 15 | 20 | 10 | 10 | 10 | 10 | 5 | 0 |  | 90 | 95 | 20 | 35 | 45 | 50 | 70 | 90 | 90 | 15 | Plant response rating, Barley, Spring [1, 24]: 5; Plant response rating, Wheat, Winter [2, 24]: 5; Plant response rating, Barnyardgrass (0 to 100 scale, 0 is no effect, 100 is complete control) [7]: 90
Cc1nn(-c2ccc(F)c(C(F)(F)F)c2)nc1Oc1ccnc(C(F)(F)F)c1 [Compound 147] | 15 | 20 | 25 | 15 | 15 | 15 | 20 | 10 | 0 | 90 | 90 | 90 |  |  |  |  |  |  |  |  | Plant response rating, Barley, Spring [1, 13]: 0; Plant response rating, Barley, Spring [1, 14]: 0; Plant response rating, Barley, Spring [1, 15]: 5; Plant response rating, Barley, Spring [1, 16]: 10; Plant response rating, Wheat, Winter [2, 13]: 0; Plant response rating, Wheat, Winter [2, 14]: 0; Plant response rating, Wheat, Winter [2, 15]: 0; Plant response rating, Wheat, Winter [2, 16]: 5; Plant response rating, Barnyardgrass (0 to 100 scale, 0 is no effect, 100 is complete control) [7]: 55

— patent US9302999B2, “Substituted triazoles as herbicides” (E. I. DU PONT DE NEMOURS AND COMPANY, priority 2012, dated 2016)
